Like-named read-outs stand apart in the source and are kept apart here.
Experiments:
S. typhimurium TA98 = assay: Bacterial reverse mutation assay (Ames test), strain TA98; details: for reversion of mutations in TA98: 40 μg/mL, presence and absence of the microsomal fraction
Experimental: (§1) Potential mutagenicity or pro-mutagenicity of non-heated and heated ST, ST-LA, and ST-OA was determined using the bacterial reverse mutation assay (Ames test) with Salmonella enterica subsp. enterica ser. typhimurium tester strains TA98, TA100, and TA102, which were obtained from the Polish Collection of Microorganisms of the Institute of Immunology and Experimental Therapy of the Polish Academy of Sciences in Wroclaw.
(§2) Mutagenicity experiments were performed in the liquid pre-incubation assay, without and with metabolic activation by supplying Aroclor 1254-induced rat liver microsomal fraction (S9, Sigma-Aldrich) with NADP and cofactors for NADPH-supported oxidation, according to the procedure described by Mortelmans and Zeiger[39]. Briefly, reaction mixtures, consisting of 12-h bacterial culture, non-heated and heated compound (ST, ST-LA, ST-OA) at a concentration of 40 μg, 0.2 M phosphate buffer (pH 7.4), and alternatively S9 activating mixture, were pre-incubated at 37 °C for 20 min. […] The mutagen, 2-aminoanthracene (5 μg) (Sigma-Aldrich), was a positive control in pro-mutagenicity experiments. After pre-incubation, the reaction mixtures were added to the top agar supplemented with traces of histidine and biotin and poured onto the plates covered with minimum glucose agar. The cultures were incubated for 48 h at 37 °C, and the number of revertants (His+) colonies was counted manually.
(§3) Compounds with MI ≥ 2 can be recognized as potentially mutagenic.

S. typhimurium TA102 = assay: Bacterial reverse mutation assay (Ames test), strain TA102; details: for effect on TA102 revertants: 40 μg/mL, regardless of metabolic activation (+/− S9)
Experimental: as §1, §2, §3

S. typhimurium TA100 = details: for Mutagenic index TA100: reference mutagen; for reversion of mutations in TA100: 40 μg/mL, presence and absence of the microsomal fraction
Experimental: as §1, §2, §3

CCD 841 CoN cells [1] = assay: DNA damage detection, comet assay (SCGE); format: cell-based, human; details: reference oxidant, 100 μM, 30 min
Experimental: The cells were grown at 6-well plates at the established density and standard culture conditions and exposed to the non-heated and heated ST, ST-OA, and ST-LA for 48 h. The non-treated cells and cells treated with H2O2 (100 μM, 30 min) to induce oxidative DNA damage constituted the negative and positive controls, respectively. After treatment, cells were analyzed for DNA damage using a single cell gel electrophoresis (SCGE) called comet assay, described in detail previously. Briefly, harvested cells suspended in low melting point agarose were put onto microscope slides pre-coated with normal melting point agarose and subjected sequentially to lysis, alkaline electrophoresis (pH > 13), and neutralization ([…]). The cells were stained with SYBRGold (Molecular Probes), viewed under a fluorescence microscope (Axiovert 200, Zeiss, Carl Zeiss, Gottingen, Germany), and analyzed using CometScore™ software (TriTek Corp., Sumerduck, VA, USA). At least 100 cells were analyzed on a microscope slide; 300 cells were considered for DNA damage detection in one sample. Data were expressed as the mean percentage of DNA content in the comet tail. […] Based on the comets' categorization, the total comet score (TCS) was calculated according to the formula: TCS = 0(n) + 1(n) + 2(n) + 3(n) + 4(n), where “n” is the number of cells in each comet class (0–4)[45].

THLE-2 cells = test system: THLE-2 cells; parameters: method as in PMID 31883991; details: normal human liver cells; cited from earlier work
CCD 841 CoN cells [2] = assay: Cell cycle analysis by flow cytometry (propidium iodide); format: cell-based, human; details: 40 μg/mL, 24 h
Experimental: CCD 841 CoN cells were grown in 6-well plates at an initial cell density of 2 × 10^4 cells/cm^2 for 24 h under standard culture conditions. The cells were treated for 24 h with the analyzed compounds at a concentration of 40 μg/mL; the high dose was applied because of the relatively low cytotoxic potential of ST-OA and ST-LA as determined in cytotoxicity studies. In addition, the cells were exposed to 0.05 μM camptothecin (Sigma-Aldrich) as a positive reference compound known to modulate cell cycle progression.
After treatment, the cells were harvested by trypsinization, washed in PBS, and fixed in 70% ethanol. Then, the cells were stained with 50 μg/mL propidium iodide in the presence of 100 μg/mL RNase (Sigma-Aldrich). The sample preparation method and staining protocol were described previously. The cycle phase distribution was analyzed with an Amnis™ FlowSight™ flow cytometer (Luminex Corporation, TX, USA).

[3] = test system: caspase 3/7 activity in CCD 841 CoN cells; assay: Caspase 3/7 activity assay (APO-One Homogeneous); format: cell-based, human; details: 40 μg/mL, 24 h
Experimental: CCD 841 CoN cells were grown in black 96-well plates at an initial cell density of 2 × 10^4 cells/cm^2 for 24 h under standard culture conditions. The cell cultures were treated for 24 h with ST, ST-OA, and ST-LA at a 40 μg/mL dose. After treatment, caspase-3/7 activity was determined using the APO-One Homogeneous Caspase-3/7 Assay (Promega Corporation, Wisconsin, USA), which is based on the proteolytic cleavage of C-terminal side of aspartate residue in the DEVD peptide substrate by caspase 3/7 into fluorescent rhodamine 110 (R110). Analysis of caspase 3/7 activity was carried out following the manufacturer's instructions. Briefly, the cells after the treatment were incubated at room temperature with Apo-ONE® Caspase-3/7 Reagent—bifunctional cell lysis/caspase activity buffer combined with the pro-fluorescent caspase-3/7 substrate Z-DEVD-R110. After 4-h incubation, fluorescence was measured at an excitation wavelength of 485 nm and an emission wavelength of 530 nm using a Tecan M200 Infinite microplate reader. Data obtained were normalized to cellular protein content, quantified by BCA assay (Pierce® BCA Protein Assay Kit, Thermo Scientific Inc., USA) according to the manufacturer's protocol.

FHs 74 Int cells = test system: FHs 74 Int cells; parameters: method as in PMID 31883991; details: normal human small intestine cells; cited from earlier work
CCD 841 CoN cells [4] = assay: DNA synthesis, BrdU incorporation (Cell Proliferation ELISA); format: cell-based, human; details: 10-40 μg/mL, 48 h
Experimental: CCD 841 CoN cells were grown in black 96-well plates at an initial cell density of 2 × 10^4 cells/cm^2 for 24 h under standard culture conditions. The cells were treated with ST (2.5, 5, 10, 20, and 40 μg/mL) and its esters ST-OA and ST-LA (10, 20, and 40 μg/mL) for 48 h. DNA synthesis was measured by incorporating thymidine analog 5-bromo-2′-deoxyuridine (BrdU) into newly synthesized DNA using the Cell Proliferation ELISA kit according to the protocol recommended by the manufacturer (Roche Diagnostics GmbH, Mannheim, Germany). Briefly, BrdU was added to the treated cells 24 h before the end of the exposure to the ST, ST-OA, and ST-LA (final BrdU concentration of 10 μM). After treatment, BrdU-labeled DNA was denatured (30 min, 20 °C). Then, BrdU was bonded with a peroxidase-conjugated anti-BrdU antibody (90 min, 20 °C) and reacted with the peroxidase substrate. The absorbance measurement was done with a stop solution (1 M H2SO4) at 450 nm with reference wavelength 690 nm using a Tecan M200 Infinite microplate reader.

[5] = Thermo-oxidative treatment at 180 °C for 8 h, degradation of the compound; format: physicochemical; details: heated at 180 °C for 8 h under oxygen atmosphere
Experimental: ST, ST-OA, and ST-LA (50 mg each) were placed separately in glass vials and heated at 180 °C for 8 h under an oxygen atmosphere. After thermo-oxidative treatment, the tested compounds were stored at − 20 °C until chemical and biological analyses. The non-heated and heated ST and its esters were analyzed to detect degradation products and oxyderivatives. Analytical methods were described in the article published previously.

CCD 841 CoN cells [6] = assay: MultiTox-Fluor Multiplex Cytotoxicity Assay (live and dead cell fluorescence); format: cell-based; details: doses up to 40 μg/mL, 48 h
Experimental: The normal human diploid CCD 841 CoN cell line (ATCC® CRL-1790™) isolated from colon mucosa was obtained from American Type Culture Collection (ATCC, Manassas, VA, USA). Cells were cultured in Dulbecco’s Modified Eagle’s Medium (DMEM, Sigma-Aldrich) supplemented with fetal bovine serum (FBS; Gibco BRL, Grand Island, NY, USA) to a final concentration of 10% and maintained at 37 °C in a humidified atmosphere with 5% CO2.
In the cytotoxicity experiments, CCD 841 CoN cells were seeded in 96-well plates at an initial density of 2.0 × 10^4 cells/cm^2 and incubated for 24 h. […] Control culture contained the vehicle at the amount corresponding to the sample analyzed.
The Multitox-Fluor Multiplex Cytotoxicity Assay (Promega GmbH, Mannheim, Germany) was applied to determine the relative number of live and dead cells in the CCD 841 CoN cell cultures treated with the analyzed compounds. The assay determined live- and dead-cell protease activities using two fluorogenic peptide substrates, cell-permeant (glycyl-phenylalanyl-amino fluorocoumarin; GF-AFC) and cell-impermeant (bis-alanyl-alanyl-phenylalanyl-rhodamine 110; bis-AAF-R110). After treatment, the cells were incubated with GF-AFC and bis-AAF-R110 substrates for 60 min at 37 °C. The live- and dead-cell proteases produced AFC and R110 products, measured using a Tecan M200 Infinite microplate reader (Tecan Group Ltd., Männedorf, Switzerland) at different excitation (400 nm and 485 nm) and emission (505 nm and 520 nm) spectra. The assay was conducted according to the manufacturer’s instructions.

[7] = with metabolic activation (+ S9), reference mutagen

Compound | cytotoxic effects (THLE-2 cells) | subpopulation of dead cells with lower/reduced DNA content (CCD 841 CoN cells [2]) | caspase 3/7 activity [3] | reversion of mutations in TA98 (S. typhimurium TA98) | cytotoxic effects (FHs 74 Int cells) | DNA synthesis inhibition (CCD 841 CoN cells [4]) | effect on TA102 revertants (S. typhimurium TA102) | Fatty acid residue depletion (%) [5] | Sterol moiety depletion (%) [5] | reversion of mutations in TA100 (S. typhimurium TA100) | effect on colon cell viability / cytotoxicity (CCD 841 CoN cells [6]) | further results
Nc1ccc2cc3ccccc3cc2c1 [2-Aminoanthracene, 2-aminoanthracene, reference compound] | – | – | – | – | – | – | – | – | – | – | – | Mutagenic index TA98 (S. typhimurium TA98; [7]): 6.00; Mutagenic index TA102 (S. typhimurium TA102; [7]): 2.95; Mutagenic index TA100 (S. typhimurium TA100; with metabolic activation (+ S9)): 2.03
OO [H2O2, reference compound] | – | – | – | – | – | – | – | – | – | – | – | total comet score (TCS) (CCD 841 CoN cells [1]): 263.1 ± 29.4
CCCCC/C=C\C/C=C\CCCCCCCC(=O)OC1CCC2(C)C(=CCC3C2CCC2(C)C(C(C)/C=C/C(CC)C(C)C)CCC32)C1 (stereo not shown) [ST-LA, stigmasteryl linoleate] | no cytotoxic effects | Slight expanding the cell subpopulation with reduced DNA content | slightly increased caspase-3/7 activities | did not induce the reversion of mutations | no cytotoxic effects | not observed | did not affect the number of TA102 revertants | 31.11 ± 3.2% | 71.6 ± 6.6% | did not induce the reversion of mutations | did not affect colon cell viability | –
CCCCCCCC/C=C\CCCCCCCC(=O)OC1CCC2(C)C(=CCC3C2CCC2(C)C(C(C)/C=C/C(CC)C(C)C)CCC32)C1 (stereo not shown) [ST-OA, stigmasteryl oleate] | no cytotoxic effects | Slight expanding the cell subpopulation with reduced DNA content | slightly increased caspase-3/7 activities | did not induce the reversion of mutations | no cytotoxic effects | not observed | did not affect the number of TA102 revertants | 77.14 ± 5.3% | 88.8 ± 3.5% | did not induce the reversion of mutations | did not affect colon cell viability | –
[N-]=[N+]=[N-].[Na+] [Sodium azide, sodium azide, reference compound] | – | – | – | – | – | – | – | – | – | – | – | Mutagenic index TA100 (S. typhimurium TA100; without metabolic activation (− S9), dose printed with the label): 13.55; Mutagenic index TA100 (S. typhimurium TA100; without metabolic activation (− S9), dose printed with the label, listed as sodium azide): 13.6
